Results taken from patent US20250144067A1, “PERSONALIZED STARVATION THERAPY FOR CANCER” (Faeth Therapeutics, Inc., priority 2021, published 2025).
Counter-ions that a name gives are not always drawn. Like-named read-outs stand apart in the source and are kept apart here.

How the values were obtained:
[1] = test system: NCI-H292 lung cancer cells; test: FDA drug screening, complete media vs cholesterol-free media with simvastatin (TABLE 2); type: cell-based, human
[2] = test system: NCI-H292 lung cancer cells; test: FDA drug screening, complete media vs cholesterol-free media without statin (TABLE 1); type: cell-based, human
[3] = NCI-H292 cells, FDA library drug in cholesterol-free media with simvastatin 0.04 μM
[4] = NCI-H292 cells, FDA library drug in complete media
[5] = complete media vs cholesterol-free media + simvastatin (0.04 μM), >0 enhanced anti-cancer activity, about 0 neutral, <0 antagonist
[6] = Complete minus Cholesterol-free, greater than 0 enhanced anti-cancer activity, about 0 neutral, below 0 antagonist
[7] = NCI-H292 cells, FDA drug library screen, cholesterol-free media without statin
[8] = NCI-H292 cells, FDA drug library screen, complete media
[9] = NCI-H292 cells, cholesterol-free media with simvastatin 0.04 μM, FDA drug library screen (TABLE 2)
[10] = NCI-H292 cells, complete media, FDA drug library screen (TABLE 2)
[11] = complete media minus cholesterol-free media + simvastatin (0.04 μM), >0 enhanced anti-cancer activity, about 0 neutral, <0 antagonist
[12] = NCI-H292 cells, drug in cholesterol-free media with simvastatin 0.04 μM
[13] = NCI-H292 cells, drug in complete media
[14] = Complete minus Cholesterol-free, […]
[15] = NCI-H292 cells, cholesterol-free media without statin, FDA drug library screen
[16] = NCI-H292 cells, complete media, FDA drug library screen
[17] = Complete minus Cholesterol-free, >0 enhanced anti-cancer activity, about 0 neutral, <0 antagonist
[18] = NCI-H292 cells, cholesterol-free media without statin
[19] = Complete minus Cholesterol-free, greater than 0 enhanced anti-cancer activity, about 0 neutral, below 0 antagonists
[20] = NCI-H292 cells in cholesterol-free media without statin
[21] = NCI-H292 cells in complete media
[22] = NCI-H292 cells, FDA drug library screen, cholesterol-free media with simvastatin 0.04 μM
[23] = complete vs cholesterol-free media, greater than 0 enhanced anti-cancer activity, about 0 neutral, below 0 antagonists
[24] = complete media minus cholesterol-free media + simvastatin, >0 enhanced anti-cancer activity, about 0 neutral, <0 antagonist
[25] = NCI-H292 cells, cholesterol-free media with simvastatin 0.04 μM, cell growth value in FDA drug screen
[26] = NCI-H292 cells, complete media, cell growth value in FDA drug screen
[27] = complete vs cholesterol-free media, >0 enhanced anti-cancer activity, about 0 neutral, <0 antagonist

Compound: CC(C)(Oc1ccc(C2CC2(Cl)Cl)cc1)C(=O)O (centres unmarked) [Ciprofibrate]
- Cholesterol-free media + simvastatin (0.04 μM) [1, 3]: 1.569
- Complete Media [1, 4]: 1.161
- Difference [1, 5]: −0.41
- Difference [2, 6]: −0.11
- Cholesterol-free [2, 7]: 1.09
- Complete [2, 8]: 0.9746

Compound: Guanethidine (sulfate)
- Cholesterol-free media + simvastatin (0.04 μM) [1]: 1.914
- Complete Media [1]: 1.674
- Difference [1]: −0.24
- Cholesterol-free [2]: 1.619
- Complete [2]: 1.336
- Difference [2]: −0.28

Compound: Cn1c(=O)c2[nH]cnc2n(C)c1=O [Aminophylline]
- Cholesterol-free media + simvastatin (0.04 μM) [1, 9]: 0.918
- Complete Media [1, 10]: 0.8588
- Difference [1, 11]: −0.06
- Difference [2, 6]: −0.14
- Cholesterol-free [2, 7]: 0.9006
- Complete [2, 8]: 0.7581

Compound: CC1(C)[C@@H](O[C@H]2O[C@H](C(=O)[O-])[C@@H](O)[C@H](O)[C@H]2O[C@@H]2O[C@H](C(=O)[O-])[C@@H](O)[C@H](O)[C@H]2O)CC[C@]2(C)[C@H]3C(=O)C=C4[C@@H]5C[C@@](C)(C(=O)O)CC[C@]5(C)CC[C@@]4(C)[C@]3(C)CC[C@@H]12.[K+].[K+] [Dipotassium glycyrrhizinate]
- Cholesterol-free media + simvastatin (0.04 μM) [1, 12]: 1.125
- Complete Media [1, 13]: 0.9331
- Difference ([1]; complete media vs cholesterol-free media + simvastatin (0.04 μM), […]): −0.19
- Difference [2, 14]: 0.00
- Cholesterol-free [2, 15]: 1.01
- Complete [2, 16]: 1.007

Compound: Cc1ccccc1C(=O)Nc1ccc(C(=O)N2CCCC(N(C)C)c3ccccc32)cc1 (centres unmarked) [Mozavaptan]
- Cholesterol-free media + simvastatin (0.04 μM) [1, 3]: 1.121
- Complete Media [1, 4]: 0.8375
- Difference [1, 5]: −0.28
- Difference [2, 17]: −0.20
- Cholesterol-free [2, 18]: 0.8282
- Complete ([2]; NCI-H292 cells, complete media): 0.6332

Compound: O=C1NC(c2ccccc2)(c2ccccc2)C(=O)N1COP(=O)(O)O [Fosphenytoin (disodium)]
- Cholesterol-free media + simvastatin (0.04 μM) [1, 3]: 1.806
- Complete Media [1, 4]: 1.233
- Difference [1, 5]: −0.57
- Difference [2, 19]: −1.22
- Cholesterol-free [2, 20]: 2.489
- Complete [2, 21]: 1.268

Compound: COc1cc([C@@H]2c3cc4c(cc3[C@@H](O[C@@H]3O[C@@H]5CO[C@@H](C)O[C@H]5[C@H](O)[C@H]3O)[C@H]3COC(=O)[C@H]23)OCO4)cc(OC)c1O [Etoposide]
- Cholesterol-free media + simvastatin (0.04 μM) [1, 12]: 0.718
- Complete Media [1, 13]: 0.5014
- Difference [1, 5]: −0.22
- Difference [2, 17]: −0.29
- Cholesterol-free [2, 18]: 0.7069
- Complete ([2]; NCI-H292 cells, complete media): 0.4154

Compound: CN(C)c1cc(CNCC(C)(C)C)c(O)c2c1C[C@H]1C[C@H]3[C@H](N(C)C)C(O)=C(C(N)=O)C(=O)[C@@]3(O)C(O)=C1C2=O [Omadacycline (hydrochloride)]
- Cholesterol-free media + simvastatin (0.04 μM) [1, 22]: 1.209
- Complete Media [1, 8]: 1.089
- Difference [1, 5]: −0.12
- Difference [2, 6]: −0.15
- Cholesterol-free [2, 7]: 1.103
- Complete [2, 8]: 0.9531

Compound: CCCCN(CCCC)CCC(O)c1cc2c(Cl)cc(Cl)cc2c2cc(C(F)(F)F)ccc12 (centres unmarked) [Halofantrine hydrochloride]
- Cholesterol-free media + simvastatin (0.04 μM) [1, 3]: 1.233
- Complete Media [1, 4]: 0.9282
- Difference [1, 5]: −0.30
- Cholesterol-free [2, 18]: 1.176
- Complete ([2]; NCI-H292 cells, complete media): 0.7446
- Difference [2, 23]: −0.43

Compound: Cc1coc2c1C(=O)C(=O)c1c-2ccc2c(C)cccc12 [Tanshinone I]
- Cholesterol-free media + simvastatin (0.04 μM) [1, 9]: 0.9012
- Complete Media [1, 10]: 0.8645
- Difference ([1]; complete media minus cholesterol-free media + simvastatin (0.04 μM), […]): −0.04
- Difference [2, 14]: −0.07
- Cholesterol-free [2, 7]: 0.8572
- Complete [2, 8]: 0.783

Compound: CCCCCCCCCCCCCCCC(=O)OC1CCCn2c1nc(C)c(CCN1CCC(c3noc4cc(F)ccc34)CC1)c2=O (centres unmarked) [Paliperidone palmitate]
- Cholesterol-free media + simvastatin (0.04 μM) [1, 3]: 1.193
- Complete Media [1, 4]: 0.8268
- Difference [1, 5]: −0.37
- Difference [2, 6]: −0.16
- Cholesterol-free [2, 7]: 1.234
- Complete [2, 8]: 1.075

Compound: CC(C)=CCC/C(C)=C/CC/C(C)=C/CC/C(C)=C/CC1=C(C)C(=O)c2ccccc2C1=O [Menaquinone-4]
- Cholesterol-free media + simvastatin (0.04 μM) [1, 3]: 1.094
- Complete Media [1, 4]: 0.773
- Difference [1, 5]: −0.32
- Cholesterol-free [2, 18]: 1.129
- Complete ([2]; NCI-H292 cells, complete media): 0.777
- Difference [2, 23]: −0.35

Compound: CC(=O)Nc1c(I)c(NC(C)=O)c(I)c(C(=O)[O-])c1I.[Na+] [Sodium diatrizoate]
- Cholesterol-free media + simvastatin (0.04 μM) [1, 22]: 0.8717
- Complete Media [1, 8]: 1.037
- Difference [1, 24]: 0.16
- Difference [2, 6]: −0.08
- Cholesterol-free [2, 7]: 1.128
- Complete [2, 8]: 1.045

Compound: Tolterodine (tartrate)
- Cholesterol-free media + simvastatin (0.04 μM) [1]: 1.183
- Complete Media [1]: 1.127
- Difference [1]: −0.06
- Cholesterol-free [2]: 1.873
- Complete [2]: 0.9529
- Difference [2]: −0.92

Compound: Cc1onc(-c2c(Cl)cccc2Cl)c1C(=O)N[C@@H]1C(=O)N2[C@@H]1SC(C)(C)[C@@H]2C(=O)O [Dicloxacillin (Sodium hydrate)]
- Cholesterol-free media + simvastatin (0.04 μM) [1, 22]: 1.145
- Complete Media [1, 8]: 1.008
- Difference [1, 5]: −0.14
- Difference [2, 17]: 0.01
- Cholesterol-free [2, 15]: 0.8462
- Complete [2, 16]: 0.855

Compound: CC1(C)O[C@@H]2C[C@H]3[C@@H]4C[C@H](F)C5=CC(=O)C=C[C@]5(C)[C@H]4[C@@H](O)C[C@]3(C)[C@]2(C(=O)CO)O1 [Flunisolide]
- Cholesterol-free media + simvastatin (0.04 μM) [1, 25]: 0.5373
- Complete Media [1, 26]: 0.6048
- Difference [1, 24]: 0.07
- Difference [2, 17]: −0.06
- Cholesterol-free [2, 15]: 0.8546
- Complete [2, 16]: 0.7935

Compound: CCCCCCCCc1ccc(CCC(N)(CO)CO)cc1 [Fingolimod (hydrochloride)]
- Cholesterol-free media + simvastatin (0.04 μM) [1, 25]: 0.9867
- Complete Media [1, 26]: 1.023
- Difference [1, 24]: 0.04
- Cholesterol-free [2, 18]: 1.335
- Complete ([2]; NCI-H292 cells, complete media): 0.8744
- Difference [2, 23]: −0.46

Compound: (−)-Limonene
- Complete Media [1, 8]: 1.422
- Difference [1, 24]: 0.38
- Cholesterol-free [2, 15]: 1.299
- Complete [2, 16]: 1.515
- Difference [2, 27]: 0.22

Compound: CC(=O)N(CC(O)CN(C(C)=O)c1c(I)c(C(=O)NCC(O)CO)c(I)c(C(=O)NCC(O)CO)c1I)c1c(I)c(C(=O)NCC(O)CO)c(I)c(C(=O)NCC(O)CO)c1I (centres unmarked) [Iodixanol]
- Cholesterol-free media + simvastatin (0.04 μM) [1, 9]: 1.197
- Complete Media [1, 10]: 1.164
- Difference [1, 11]: −0.03
- Cholesterol-free [2, 15]: 0.9782
- Complete [2, 16]: 1.054
- Difference [2, 27]: 0.08

Compound: N=C(N)NC(=O)c1nc(Cl)c(N)nc1N [Amiloride (hydrochloride)]
- Cholesterol-free media + simvastatin (0.04 μM) [1, 22]: 1.016
- Complete Media [1, 8]: 0.8717
- Difference [1, 5]: −0.14
- Difference [2, 6]: −0.17
- Cholesterol-free [2, 7]: 1.642
- Complete [2, 8]: 1.47

Compound: COc1ccnc(C[S+]([O-])c2nc3cc(OC(F)F)ccc3[n-]2)c1OC.[Na+] (centres unmarked) [Pantoprazole (sodium)]
- Cholesterol-free media + simvastatin (0.04 μM) ([1]; NCI-H292 cells, cholesterol-free media with simvastatin 0.04 μM, […]): 1.655
- Complete Media ([1]; NCI-H292 cells, complete media, […]): 1.781
- Difference ([1]; complete media minus cholesterol-free media + simvastatin, […]): 0.13
- Difference [2, 14]: −0.01
- Cholesterol-free [2, 15]: 0.8197
- Complete [2, 16]: 0.8107

Compound: O=C(O)c1cc(/N=N/c2ccc(S(=O)(=O)Nc3ccccn3)cc2)ccc1O [Sulfasalazine]
- Cholesterol-free media + simvastatin (0.04 μM) [1, 9]: 1.17
- Complete Media [1, 10]: 1.155
- Difference [1, 11]: −0.01
- Difference [2, 17]: −0.20
- Cholesterol-free [2, 18]: 1.104
- Complete ([2]; NCI-H292 cells, complete media): 0.9081

Compound: O=C(O)Cc1ccccc1Nc1c(Cl)cccc1Cl [Diclofenac (potassium)]
- Cholesterol-free media + simvastatin (0.04 μM) [1, 9]: 1.093
- Complete Media [1, 10]: 1.041
- Difference [1, 11]: −0.05
- Difference [2, 17]: −0.03
- Cholesterol-free [2, 15]: 1.133
- Complete [2, 16]: 1.107

Compound: CO/N=C(\C(=O)N[C@@H]1C(=O)N2C(C(=O)O)=CCS[C@H]12)c1csc(N)n1 [Ceftizoxime]
- Cholesterol-free media + simvastatin (0.04 μM) [1, 12]: 1.55
- Complete Media [1, 13]: 1.371
- Difference [1, 5]: −0.18
- Difference [2, 17]: 0.03
- Cholesterol-free [2, 15]: 1.031
- Complete [2, 16]: 1.057

Compound: O=C(O)c1ccccc1OP(=O)(O)O [2-(Phosphonooxy)benzoic acid]
- Cholesterol-free media + simvastatin (0.04 μM) [1, 12]: 1.147
- Complete Media [1, 13]: 0.9779
- Difference [1, 5]: −0.17
- Difference [2, 19]: −0.51
- Cholesterol-free [2, 20]: 1.515
- Complete [2, 21]: 1.005

Compound: Cc1c(-c2ccccc2)oc2c(C(=O)OCCN3CCCCC3)cccc2c1=O [Flavoxate (hydrochloride)]
- Cholesterol-free media + simvastatin (0.04 μM) [1, 9]: 0.9542
- Complete Media [1, 10]: 0.8849
- Difference [1, 11]: −0.07
- Difference [2, 17]: 0.01
- Cholesterol-free [2, 15]: 0.984
- Complete [2, 16]: 0.9957

Compound: COc1cccc(N(C)C(=S)Oc2ccc3c(c2)CCCC3)n1 [Liranaftate]
- Cholesterol-free media + simvastatin (0.04 μM) [1]: 0.9604
- Complete Media [1]: 0.9217
- Difference [1]: −0.04
- Cholesterol-free [2]: 1.279
- Complete [2]: 0.8388
- Difference [2]: −0.44
